Results published in patent publication US8680152B2, “Cathepsin inhibitors for the treatment of bone cancer and bone cancer pain” (Virobay, Inc., priority 2011, dated 2014).
Read-outs that look alike come from different tables or passages of the source.

Experiments:
human osteoclasts = assay: Inhibition of bone resorption in vitro (human osteoclasts on bovine bone slices); format: cell-based; conditions: CTX/TRACP5b, FIG. 7
Experimental: FIG. 7. Inhibition of Bone Resorption In Vitro. […] Compounds of the present invention were added to cultured human differentiated bone marrow-derived osteoclasts cultured on bovine bone slices allowing them to resorb bone. Tartrate-resistant acid phosphatase 5b activity (TRACP 5b) was measured in the culture medium as an index of the number of osteoclasts formed in each well, and C-terminal cross-linked telopeptides of type 1 collagen (CTX) was measured in the culture medium to quantitate bone resorption. […] The irreversible protease inhibitor E64 as well as the reversible specific cathepsin K protease inhibitor odanacatib were included as assay controls.
Compound A was assessed in an in vitro assay for its efficacy in blocking resorption activity of human osteoclasts in vitro. Bone marrow-derived human osteoclast precursor cells were cultured on bovine bone slices for 7 days in conditions that allowed osteoclast differentiation, and allowing them to differentiate into bone-resorbing osteoclasts. After completion of osteoclast differentiation at day 7, the culture medium was removed and new culture medium for assessing osteoclast activity was added. Test compounds including Compound A was added to the cultures at this stage on day 7. Cultures were then allowed to continue for an additional 3 days allowing them to resorb bone. Concentrations of Compound assessed were 1, 3, 10, 30, 100, 300, and 1000 nM in 8 replicates. Tartrate-resistant acid phosphatase 5b activity (TRACP 5b) was measured from the culture medium collected on day 7 indicating the number of mature osteoclasts formed in each well before adding compounds. C-terminal cross-linked telopeptides of type 1 collagen (CTX) were measured form the culture medium collected at day 10 to quantitate bone resorption during days 7-10. […] The study was performed in […] with each containing a baseline group including vehicle, a control group with a reference compound E64, and 7 concentrations of the test compound to determine an EC50 for inhibition of resorption activity.

cathepsin B = cathepsin B (Homo sapiens, UniProt P07858); assay: Cathepsin B assay; format: biochemical
Experimental: Solutions of test compounds in varying concentrations were prepared in 101 μL of dimethyl sulfoxide (DMSO) and then diluted into assay buffer (40 μL, comprising: N,N-bis(2-hydroxyethyl)-2-aminoethanesulfonic acid (BES), 50 mM (pH 6); polyoxyethylenesorbitan monolaurate, 0.05%; and dithiothreitol (DTT), 2.5 mM). Human cathepsin B (0.025 pMoles in 25 μL of assay buffer) was added to the dilutions. The assay solutions were mixed for 5-10 seconds on a shaker plate, covered and incubated for 30 min at room temperature. Z-FR-AMC (20 nMoles in 25 μL of assay buffer) was added to the assay solutions and hydrolysis was followed spectrophotometrically at (λ 460 nm) for 5 min. Apparent inhibition constants (Ki) were calculated from the enzyme progress curves using standard mathematical models.

Human cathepsin S = Human cathepsin S (Homo sapiens, UniProt P25774); assay: Cathepsin S assay; format: biochemical
Sequence of Human cathepsin S (P25774 115-331): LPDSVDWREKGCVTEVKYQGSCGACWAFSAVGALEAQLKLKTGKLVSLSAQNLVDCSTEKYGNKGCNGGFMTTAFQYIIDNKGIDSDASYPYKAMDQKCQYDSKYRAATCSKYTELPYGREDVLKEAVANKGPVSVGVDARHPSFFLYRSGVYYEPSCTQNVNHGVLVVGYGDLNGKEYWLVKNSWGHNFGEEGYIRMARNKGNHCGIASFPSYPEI
Experimental: (§1) Solutions of test compounds in varying concentrations were prepared in 10 μL of dimethyl sulfoxide (DMSO) and then diluted into assay buffer (40 μL, comprising: MES, 50 mM (pH 6.5); EDTA, 2.5 mM; and NaCl, 100 mM); β-mercaptoethanol, 2.5 mM; and BSA, 0.00%. Human cathepsin S (0.05 pMoles in 25 μL of assay buffer) was added to the dilutions. The assay solutions were mixed for 5-10 seconds on a shaker plate, covered and incubated for 30 min at room temperature. Z-Val-Val-Arg-AMC (4 nMoles in 25 μL of assay buffer containing 10% DMSO) was added to the assay solutions and hydrolysis was followed spectrophotometrically (at λ 460 nm) for 5 min. Apparent inhibition constants (Ki) were calculated from the enzyme progress curves using standard mathematical models.

Human Cathepsin V = Human Cathepsin V (Homo sapiens, UniProt O60911); assay: Cathepsin V assay; format: biochemical; conditions: for inhibition at 0.1 µM: single data point of 100 nM
Sequence of Human Cathepsin V (O60911 114-334): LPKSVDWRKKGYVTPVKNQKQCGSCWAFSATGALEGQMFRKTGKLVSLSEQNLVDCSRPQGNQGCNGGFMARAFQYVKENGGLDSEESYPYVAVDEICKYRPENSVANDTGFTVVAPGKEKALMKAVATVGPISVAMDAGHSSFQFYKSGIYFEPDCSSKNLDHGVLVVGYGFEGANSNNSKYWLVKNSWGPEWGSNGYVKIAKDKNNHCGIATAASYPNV
Experimental: The assays were performed similarly to those described above. Human Cathepsin V: The buffer used to assay this enzyme consisted of: 50 mM MES (pH 6.5), 2.5 mM DTT, 2.5 mM EDTA, 100 mM NaCl, 0.01% BSA and 10% DMSO. Recombinant human cathepsin V was supplied at 2.0 nM. Substrate, Z-Phe-Arg-AMC, was supplied at 25 μM. Apparent inhibition constants (Ki) were calculated from the enzyme progress curves using standard mathematical models.

[1] = test system: multiple human cathepsin enzymes; assay: Cathepsin inhibitory profile on multiple cathepsin enzymes; format: biochemical
Source text: FIG. 1. […] Methods are similar to those set forth in the Biological Examples.

cathepsin L = cathepsin L (Homo sapiens, UniProt P07711); assay: Cathepsin L assay; format: biochemical; conditions: for inhibition at 0.1 µM: single data point of 100 nM
Sequence of cathepsin L (P07711 114-333): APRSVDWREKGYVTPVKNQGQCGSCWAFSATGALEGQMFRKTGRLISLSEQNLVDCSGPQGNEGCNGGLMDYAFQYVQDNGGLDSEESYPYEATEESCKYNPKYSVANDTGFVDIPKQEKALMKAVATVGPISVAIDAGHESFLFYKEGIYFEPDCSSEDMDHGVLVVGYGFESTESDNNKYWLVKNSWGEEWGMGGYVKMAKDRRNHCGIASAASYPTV
Experimental: (§2) Solutions of test compounds in varying concentrations were prepared in 10 μL of dimethyl sulfoxide (DMSO) and then diluted into assay buffer (40 μL, comprising: MES, 50 mM (pH 5.5); EDTA, 2.5 mM; and DTT, 2.5 mM). Human cathepsin L (0.05 pMoles in 25 μL of assay buffer) was added to the dilutions. The assay solutions were mixed for 5-10 seconds on a shaker plate, covered and incubated for 30 min at room temperature. Z-Phe-Arg-AMC (1 nMoles in 25 μL of assay buffer) was added to the assay solutions and hydrolysis was followed spectrophotometrically at (λ 460 nm) for 5 min. Apparent inhibition constants (Ki) were calculated from the enzyme progress curves using standard mathematical models.

Human cathepsin F = molecular target: T1, Human cathepsin F (Homo sapiens, UniProt Q9UBX1); assay: Cathepsin F assay; format: biochemical
T1 sequence (Q9UBX1 271-484): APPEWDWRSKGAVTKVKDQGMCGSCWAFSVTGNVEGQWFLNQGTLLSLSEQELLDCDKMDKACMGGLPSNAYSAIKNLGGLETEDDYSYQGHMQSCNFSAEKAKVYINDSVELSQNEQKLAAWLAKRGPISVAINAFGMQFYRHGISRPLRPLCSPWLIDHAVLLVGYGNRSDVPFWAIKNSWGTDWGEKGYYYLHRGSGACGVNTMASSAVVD
Experimental: as §1, with “DTT,” for “β-mercaptoethanol,”, “0.01%.” for “0.00%.”, “F (0.1” for “S (0.05”, “Z-Phe-Arg-AMC (2” for “Z-Val-Val-Arg-AMC (4”, “Apparent inhibition constants (Ki) were calculated from the enzyme progress curves using standard mathematical models.” left out

[2] = molecular target: T2, Cathepsin K (huRab), humanized rabbit cathepsin K enzyme (Oryctolagus cuniculus, UniProt P43236); assay: Cathepsin K (huRab) assay; format: biochemical
T2 sequence (P43236 1-329 Y175D/V274L): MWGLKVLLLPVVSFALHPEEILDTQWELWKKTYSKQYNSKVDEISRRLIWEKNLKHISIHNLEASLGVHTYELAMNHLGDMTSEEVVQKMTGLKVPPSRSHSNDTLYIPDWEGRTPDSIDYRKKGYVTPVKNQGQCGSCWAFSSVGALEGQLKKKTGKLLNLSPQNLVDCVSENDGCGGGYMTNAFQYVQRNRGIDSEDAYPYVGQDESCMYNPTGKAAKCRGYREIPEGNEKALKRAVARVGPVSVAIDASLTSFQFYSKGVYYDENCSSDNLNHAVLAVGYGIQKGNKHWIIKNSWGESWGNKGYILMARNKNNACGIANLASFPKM
Experimental: FIG. 5. Cathepsin inhibitory profiles for Compound A, Compound B, and Compound C. All human enzymes with the exception of CatK HuRab. This is a humanized rabbit cathepsin K enzyme where the key amino acids in the active site of rabbit cathepsin K have been converted to match the amino acids found in the active site of human cathepsin K. The remainder of the enzyme is rabbit. Methods are as set forth in the Examples.
as §2, with “K (0.0906” for “L (0.05”, “(4” for “(1”

[3] = tested at one concentration, 100 nM

## CC[C@H](NC(=O)[C@H](CS(=O)(=O)c1cccc(S(C)(=O)=O)c1)N[C@@H](c1ccc(F)cc1)C(F)(F)F)C(=O)C(=O)NC1CC1 [Compound B, (S)—N-Cyclopropyl-3-((R)-3-((3-(methylsulfonyl)phenyl)sulfonyl)-2-(((S)-2,2,2-trifluoro-1-(4-fluorophenyl)ethyl)amino)propanamido)-2-oxopentanamide]
Human osteoclasts
  inhibition of bone resorption in vitro: inhibit bone resorption in vitro, with similar potency to Compound A

## CC[C@H](NC(=O)[C@H](CC(F)(F)CC1CC1)NCC(F)(F)Oc1ccc(F)cc1)C(=O)C(=O)NC1CC1 [Compound D, (S)-5-cyclopropyl-N-((S)-1-(cyclopropylamino)-1,2-dioxopentan-3-yl)-2-(2,2-difluoro-2-(4-fluorophenoxy)ethylamino)-4,4-difluoropentanamide]
Human osteoclasts
  inhibition of bone resorption in vitro: inhibit bone resorption in vitro, with similar potency to Compound A
Cathepsin B
  IC50: 23 nM
Human cathepsin S
  IC50: 0.267 nM
Human Cathepsin V
  inhibition at 0.1 µM: 63%
Human Cathepsin V; [3]
  IC50: < 100 nM
[1]
  cathepsin inhibitory profile on multiple cathepsin enzymes: very favorable cathepsin inhibitory profile
Cathepsin L
  inhibition at 0.1 µM: 75%
Cathepsin L; [3]
  IC50: < 100 nM

## CC[C@H](NC(=O)[C@H](CC(F)(F)CC1CC1)N[C@@H](c1ccc(F)cc1)C(F)(F)F)C(=O)C(=O)NC1CC1 [Compound E, (S)-5-cyclopropyl-N—((S)-1-(cyclopropylamino)-1,2-dioxopentan-3-yl)-4,4-difluoro-2-(((S)-2,2,2-trifluoro-1-(4-fluorophenyl)ethyl)amino)pentanamide]
Human osteoclasts
  inhibition of bone resorption in vitro: inhibit bone resorption in vitro, with similar potency to Compound A
Cathepsin B
  IC50: < 100 nM
Cathepsin B; one concentration, 100 nM
  inhibition at 0.1 µM: ≥ 98%
Human cathepsin S
  IC50: 0.332 nM
Human Cathepsin V
  inhibition at 0.1 µM: ≥ 98%
Human Cathepsin V; [3]
  IC50: < 100 nM
Cathepsin L
  inhibition at 0.1 µM: ≥ 98%
Cathepsin L; [3]
  IC50: < 100 nM

## CC[C@H](NC(=O)[C@H](CS(=O)(=O)Cc1cccnc1)N[C@@H](c1ccc(F)cc1)C(F)(F)F)C(=O)C(=O)NC1CC1 [Compound F, (S)—N-cyclopropyl-2-oxo-3-((R)-3-((pyridin-3-ylmethyl)sulfonyl)-2-(((S)-2,2,2-trifluoro-1-(4-fluorophenyl)ethyl)amino)propanamido)pentanamide]
Human osteoclasts
  inhibition of bone resorption in vitro: inhibit bone resorption in vitro, with similar potency to Compound A
Cathepsin B
  IC50: 2.5 nM
Human cathepsin S
  IC50: 0.34 nM
Human Cathepsin V
  IC50: < 0.25 nM
Human cathepsin F
  IC50: 74 nM
[2]
  IC50: 28 nM
Cathepsin L
  IC50: 0.3 nM

## CC[C@H](NC(=O)[C@H](CCS(C)(=O)=O)N[C@@H](c1ccc(F)cc1)C(F)(F)F)C(=O)C(=O)NC1CC1 [Example 1, N-cyclopropyl-3S-{4-methanesulfonyl-2S-[2,2,2-trifluoro-1S-(4-fluoro-phenyl)-ethylamino]-butyrylamino}-2-oxo-pentanamide]
other
  melting point: 152.5 to 153.5 °C
